How the values were obtained:
[1] = system: WT mice (hyperoxia-induced lung injury); experiment: Hyperoxia-induced lung injury in mice, BAL readouts (total cells, protein, LDH, Amplex Red oxidants, IL-1β, IL-6); type: in vivo
Method: FIG. 1 illustrates an exemplary T3 administration regime in mice. WT mice were nebulized with triiodothyronine (T3, 40 μg/kg) for 1 day or 3 days or propylthiouracil (PTU, 100 μg/kg) for 3 days prior to 72 h continuous hyperoxia exposure.
FIGS. 2A-2F illustrate the finding that T3 attenuates hyperoxia-induced lung injury, inflammation, and oxidants in WT mice. WT mice were nebulized with T3 (40 μg/kg) for 1 day or 3 days, or PTU (100 μg/kg) for 3 days prior to 72 h continuous hyperoxia exposure. Control mice were exposed to room air (RA). […] IL-1β (FIG. 2E) and IL-6 (FIG. 2F) were detected by ELISA in BALF. The values are expressed as mean±SD and analyzed by Mann-Whitney test n=6 for each group). *p<0.05, vs RA; **p<0.05, vs hyperoxia without pretreatment.
WT, PINK1−/−, and Parkin−/− mice were nebulized with T3 (40 μg/kg) for 3 days or no pretreatment prior to 72 h continuous hyperoxia exposure. […] IL-1β (FIG. 4E) and IL-6 (FIG. 4F) were detected by ELISA in BALF. The values are expressed as mean±SD and analyzed by Mann-Whitney test n=6 for each group). *p<0.05, vs WT no T3 RA; **p<0.05, vs WT no T3 hyperoxia; #p<0.05, vs corresponding RA; ##p<0.05, vs corresponding no T3 hyperoxia.
FIGS. 6A-6F illustrate the finding that GC-1 pretreatment prevents hyperoxia-induced lung injury and accelerates recovery. WT mice were orally gavaged with GC-1 (40 μm/kg) and then exposed to RA or to continuous hyperoxia for 72 h (H3). Recovery phase was initiated after 72 h hyperoxia (R1-3, 1, 2 3 and 6 days post-hyperoxia). Cells recovered from BAL were counted as BAL total cell counts (FIG. 6A). […] IL-6 (FIG. 6E) and IL-1β (FIG. 6F) was detected by ELISA in BALF. The values are expressed as mean±SD and analyzed by Mann-Whitney test (n=4 for each group). *p<0.05 versus no GC-1 RA; **p<0.05 versus no GC-1 H3; #p<0.05 versus corresponding no GC-1.

mouse lungs = experiment: Immunoblot of lung lysates from mice exposed to hyperoxia; type: in vivo
Method: FIG. 3 illustrates the finding that T3 pretreatment increases mitochondrial biogenesis/fusion/mitophagy and decreases ER stress & apoptosis. WT mice were nebulized with T3 (40 μg/kg) for 1 day or 3 days or PTU (100 μg/kg) for 3 days prior to 72 h continuous hyperoxia exposure. Lysates were isolated and immunoblotted against antibodies as listed. ([…] was used as protein loading control.
FIG. 5 illustrates the finding that T3 pretreatment increased Mito anti-ROS potential, biogenesis and mitophagy via PINK 1. WT and PINK1-KO mice were nebulized with T3 (40 μg/kg) for 3 days prior to 72 h continuous hyperoxia exposure. Lysates were isolated and immunoblotted against antibodies as listed. β-Actin was used as protein loading control.
FIG. 7 illustrates the finding that GC-1 pretreatment decreased hyperoxia-induced Mito dysfunction, ER stress and apoptosis. WT mice were orally gavaged with GC-1 (40 μm/kg) and exposed to RA or to hyperoxia for 72 h (H3). A time course of recovery after 72 h hyperoxia is shown (R1-3, 1, 2 3 and 6 days post-hyperoxia). Lysates from mouse lungs were immunoblotted against the listed antibodies (Abs).
FIG. 8 illustrates the finding that GC-1 pretreatment increases Tie2 activation and decreases Ang2. WT mice were orally gavaged with GC-1 (40 μm/kg) and exposed to RA or to hyperoxia for 72 h (H3). A time course of recovery after 72 h hyperoxia is shown (R1-3, 1, 2 3 and 6 days post-hyperoxia). Lysates from mouse lungs were immunoblotted against the listed antibodies.

[2] = WT mice orally gavaged with GC-1 (40 μm/kg), 72 h hyperoxia and recovery, FIG. 8
[3] = WT mice nebulized with T3 (40 μg/kg) for 1 day or 3 days prior to 72 h hyperoxia, FIG. 3

SMILES | hyperoxia-induced lung injury ([1]; WT mice orally gavaged with GC-1 (40 μm/kg), then 72 h continuous hyperoxia (H3), FIGS. 6A-6F) | recovery after hyperoxia ([1]; WT mice orally gavaged with GC-1 (40 μm/kg), recovery phase 1, 2 3 and 6 days post-hyperoxia) | hyperoxia-induced Mito dysfunction, ER stress and apoptosis (mouse lungs; WT mice orally gavaged with GC-1 (40 μm/kg), 72 h hyperoxia and recovery, FIG. 7) | Ang2 (mouse lungs; [2]) | Tie2 activation (mouse lungs; [2]) | hyperoxia-induced oxidants ([1]; WT mice nebulized with T3 (40 μg/kg) for 1 day or 3 days prior to 72 h continuous hyperoxia, Amplex Red, BAL fluid) | hyperoxia-induced lung injury ([1]; WT mice nebulized with T3 (40 μg/kg) for 1 day or 3 days prior to 72 h continuous hyperoxia, FIGS. 2A-2F) | hyperoxia-induced inflammation ([1]; WT mice nebulized with T3 (40 μg/kg) for 1 day or 3 days prior to 72 h continuous hyperoxia, IL-1β, IL-6 in BALF) | mediator of T3 effects against hyperoxia-induced lung injury ([1]; WT, PINK1−/− and Parkin−/− mice nebulized with T3 (40 μg/kg) for 3 days prior to 72 h hyperoxia, FIGS. 4A-4F) | Mito anti-ROS potential, biogenesis and mitophagy (mouse lungs; WT and PINK1-KO mice nebulized with T3 (40 μg/kg) for 3 days prior to 72 h hyperoxia, via PINK 1, FIG. 5) | ER stress & apoptosis (mouse lungs; [3]) | mitochondrial biogenesis/fusion/mitophagy (mouse lungs; [3])
Cc1cc(OCC(=O)O)cc(C)c1Cc1ccc(O)c(C(C)C)c1 [GC-1, 2-(4-(4-hydroxy-3-isopropylbenzyl)-3,5-dimethylphenoxy)acetic acid] | prevents | accelerates | decreased | decreases | increases | – | – | – | – | – | – | –
N[C@@H](Cc1cc(I)c(Oc2ccc(O)c(I)c2)c(I)c1)C(=O)O [T3, (S)-2-amino-3-[4-(4-hydroxy-3-iodophenoxy)-3,5-diiodophenyl]propanoic acid] | – | – | – | – | – | attenuates | attenuates | attenuates | PINK 1, not Parkin, mediates T3 effects | increased | decreases | increases

Source: patent US20230364044A1, “Methods of Treating or Preventing Acute Respiratory Distress Syndrome” (YALE UNIVERSITY, priority 2018, published 2023)
